Broadly, the IC50 is the concentration that inhibits the measured activity by half.

Sequence of human 11β-HSD1 microsome fraction (P28845 whole entry): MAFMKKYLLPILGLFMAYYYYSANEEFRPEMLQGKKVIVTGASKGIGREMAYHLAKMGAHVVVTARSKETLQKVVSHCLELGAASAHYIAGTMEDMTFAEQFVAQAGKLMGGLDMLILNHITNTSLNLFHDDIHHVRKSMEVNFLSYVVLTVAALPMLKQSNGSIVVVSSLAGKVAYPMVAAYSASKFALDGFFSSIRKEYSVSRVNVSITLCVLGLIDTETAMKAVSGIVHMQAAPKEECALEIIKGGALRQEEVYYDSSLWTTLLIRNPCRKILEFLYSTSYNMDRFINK

The assay concerns the target human 11β-HSD1 microsome fraction (Homo sapiens, UniProt P28845). The experiment in a line: Enzymatic 11beta-HSD1 test (SPA-based detection). It is filed as biochemical. To be noted: [1,2-3H]-cortisone, NADPH, 37° C., 1 hour, read-out: IC50 (nM), biological activity. The method, then: First of all, 20 μl of the human 11β-HSD1 microsome fraction (0.2 μg of protein), prepared in 50 mM HEPES, 0.1% BSA (w/v), were applied to a plate with 384 wells. The test compounds (0.09 μl) were applied to the assay plate in 100% DMSO. The reaction was started by addition of 20 μl of [1,2-^3H]-cortisone (0.1 μCi/[…]) in assay buffer comprising 25 mM HEPES, 100 mM KCl, 5 mM NaCl, 2 mM MgCl2 and 0.25 mM NADPH. The plate was agitated at 37° C. for 1 hour. At the same time, a stop solution comprising 20 mg/ml SPA-PVT beads, 1.6 mg/ml monoclonal cortisol antibody and 0.01 mM SSR110887 (inhibitor from the Biovitrium patent) in 50 mM HEPES, 1 M NaCl and 1 M KCl was stirred at room temperature. To stop the reaction, 25 μl of the stop solution were added to each well. The plate was agitated gently at room temperature for 1 further hour and then centrifuged at 500 gav for 1 min, in order that the SPA beads could settle out. […] The comparative compound was glycyrrhetinic acid.
Protein and radioactive substrate were dispensed with a Biomek FX unit (Beckman Coulter) for handling liquids. The test compounds were added with a Cybi-Well equipped with a 90 n1 pin tool (CyBio).
Lit.: Solly S, Mundt S S, Zokian H J, Juy-Fang Ding G, Hermanowski-Vosatka A, Strulovici B and Zheng W. High-throughput screening of 11β-Hydroxysteroid dehydrogenase type 1 in scintillation proximity format.
Consider `O=S1(=O)N=C(NC2CCCCC2)OC(c2ccccc2)C12CC2` (centres unmarked) [Example 1, Cyclohexyl-(4,4-dioxo-8-phenyl-7-oxa-4lambda6-thia-5-aza-spiro[2.5]oct-5-en-6-yl)-amine], for which the IC50 worked out at 355 nM.
In the case of `CC(C)C1OC(NC2CCCCC2)=NS(=O)(=O)C12CC2` (centres unmarked) [Example 3, Cyclohexyl-(8-isopropyl-4,4-dioxo-7-oxa-4lambda6-thia-5-aza-spiro[2.5]oct-5-en-6-yl)-amine] it was 629 nM; in that of `CCCC1OC(NC2CCCCC2)=NS(=O)(=O)C12CC2` (centres unmarked) [Example 4, Cyclohexyl-(4,4-dioxo-8-propyl-7-oxa-4lambda6-thia-5-aza-spiro[2.5]oct-5-en-6-yl)-amine], 518 nM.
As to `CC(C)(C)C1OC(NC2CCCCC2)=NS(=O)(=O)C12CC2` (centres unmarked) [Example 5, (8-tert-Butyl-4,4-dioxo-7-oxa-4lambda6-thia-5-aza-spiro[2.5]oct-5-en-6-yl)-cyclohexyl-amine], the IC50 was 438 nM.
Regarding `CC1OC(NC2CCCCC2)=NS(=O)(=O)C12CC2` (centres unmarked) [Example 6, Cyclohexyl-(8-methyl-4,4-dioxo-7-oxa-4lambda6-thia-5-aza-spiro[2.5]oct-5-en-6-yl)-amine], the IC50 amounted to 598 nM.

The values are drawn from US8828994B2, “Di- and tri-substituted oxathiazine derivatives, method for the production thereof, use thereof as medicine and drug containing said derivatives and use thereof” (SANOFI, priority 2011, dated 2014).
